From the Kinase Knowledgebase extract (Sharma et al. 2016)

Key:
[1] = molecular target: PIK3CA (human) (UniProt P42336); assay: Enzyme Assay
[2] = molecular target: PIK3CD (Human) (UniProt O00329); assay: Enzyme Assay
[3] = molecular target: PIK3CG (human) (UniProt P48736); assay: Enzyme Assay
[4] = molecular target: PIK3CA (human) (UniProt P42336); assay: Cell-Based Assay; conditions: rat-1
[5] = molecular target: PIK3CD (Human) (UniProt O00329); assay: Cell-Based Assay; conditions: rat-1
[6] = molecular target: PIK3CG (human) (UniProt P48736); assay: Cell-Based Assay; conditions: u937

PIK3CD (Human), sequence (O00329 whole entry, looked up): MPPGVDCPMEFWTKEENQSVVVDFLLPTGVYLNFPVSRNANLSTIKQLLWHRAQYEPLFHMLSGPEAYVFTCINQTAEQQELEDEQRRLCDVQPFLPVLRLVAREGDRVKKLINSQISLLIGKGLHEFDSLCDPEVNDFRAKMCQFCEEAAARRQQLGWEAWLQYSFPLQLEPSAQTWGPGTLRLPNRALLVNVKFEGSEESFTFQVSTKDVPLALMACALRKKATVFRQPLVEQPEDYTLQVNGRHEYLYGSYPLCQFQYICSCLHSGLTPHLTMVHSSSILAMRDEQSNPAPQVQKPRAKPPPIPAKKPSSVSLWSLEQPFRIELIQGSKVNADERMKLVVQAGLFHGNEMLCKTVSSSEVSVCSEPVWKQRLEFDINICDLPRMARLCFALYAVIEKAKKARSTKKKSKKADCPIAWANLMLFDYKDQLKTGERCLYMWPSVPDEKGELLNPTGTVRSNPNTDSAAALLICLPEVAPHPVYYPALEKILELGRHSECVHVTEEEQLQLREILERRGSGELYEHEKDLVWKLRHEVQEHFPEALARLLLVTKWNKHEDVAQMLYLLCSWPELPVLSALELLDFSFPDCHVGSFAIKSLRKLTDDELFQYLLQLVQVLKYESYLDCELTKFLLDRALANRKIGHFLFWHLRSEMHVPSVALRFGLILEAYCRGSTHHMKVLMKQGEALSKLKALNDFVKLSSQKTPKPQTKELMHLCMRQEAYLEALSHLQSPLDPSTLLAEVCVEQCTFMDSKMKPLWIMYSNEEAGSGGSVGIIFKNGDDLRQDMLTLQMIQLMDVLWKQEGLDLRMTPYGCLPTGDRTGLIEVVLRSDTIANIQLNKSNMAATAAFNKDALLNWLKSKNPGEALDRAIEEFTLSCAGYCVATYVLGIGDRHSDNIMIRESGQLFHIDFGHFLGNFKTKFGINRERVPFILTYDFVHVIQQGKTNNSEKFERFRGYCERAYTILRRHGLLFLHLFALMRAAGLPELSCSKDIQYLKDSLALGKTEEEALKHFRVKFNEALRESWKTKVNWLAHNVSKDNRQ
PIK3CG (human), sequence (P48736 whole entry, looked up): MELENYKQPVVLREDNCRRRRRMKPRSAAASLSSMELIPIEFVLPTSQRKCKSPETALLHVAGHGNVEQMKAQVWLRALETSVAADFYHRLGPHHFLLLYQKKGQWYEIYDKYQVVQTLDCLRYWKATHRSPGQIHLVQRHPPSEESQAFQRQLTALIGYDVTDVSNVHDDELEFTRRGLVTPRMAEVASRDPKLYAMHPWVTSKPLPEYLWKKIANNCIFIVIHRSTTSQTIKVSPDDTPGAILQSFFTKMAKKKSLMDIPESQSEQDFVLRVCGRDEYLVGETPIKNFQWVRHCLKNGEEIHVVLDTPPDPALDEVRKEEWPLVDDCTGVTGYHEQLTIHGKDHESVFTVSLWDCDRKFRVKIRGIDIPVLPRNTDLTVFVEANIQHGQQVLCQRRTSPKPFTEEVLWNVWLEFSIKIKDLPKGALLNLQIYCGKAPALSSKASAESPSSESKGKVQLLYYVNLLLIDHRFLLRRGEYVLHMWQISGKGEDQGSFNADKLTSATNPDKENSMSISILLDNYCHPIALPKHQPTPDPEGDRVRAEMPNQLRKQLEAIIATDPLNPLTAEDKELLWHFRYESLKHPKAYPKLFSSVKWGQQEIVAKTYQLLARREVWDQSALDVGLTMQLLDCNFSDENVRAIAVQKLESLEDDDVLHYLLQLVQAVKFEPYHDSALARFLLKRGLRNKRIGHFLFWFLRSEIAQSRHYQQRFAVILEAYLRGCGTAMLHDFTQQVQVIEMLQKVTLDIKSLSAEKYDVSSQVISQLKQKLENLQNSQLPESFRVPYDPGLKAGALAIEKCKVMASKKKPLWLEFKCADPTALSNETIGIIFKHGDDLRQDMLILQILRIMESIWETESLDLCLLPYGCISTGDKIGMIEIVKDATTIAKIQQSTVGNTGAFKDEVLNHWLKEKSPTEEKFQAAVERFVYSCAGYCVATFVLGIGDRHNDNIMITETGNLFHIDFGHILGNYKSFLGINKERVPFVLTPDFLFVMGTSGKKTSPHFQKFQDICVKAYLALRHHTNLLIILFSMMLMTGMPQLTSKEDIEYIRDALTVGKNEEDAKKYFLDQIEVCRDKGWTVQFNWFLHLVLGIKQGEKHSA
PIK3CA (human), sequence (P42336 whole entry, looked up): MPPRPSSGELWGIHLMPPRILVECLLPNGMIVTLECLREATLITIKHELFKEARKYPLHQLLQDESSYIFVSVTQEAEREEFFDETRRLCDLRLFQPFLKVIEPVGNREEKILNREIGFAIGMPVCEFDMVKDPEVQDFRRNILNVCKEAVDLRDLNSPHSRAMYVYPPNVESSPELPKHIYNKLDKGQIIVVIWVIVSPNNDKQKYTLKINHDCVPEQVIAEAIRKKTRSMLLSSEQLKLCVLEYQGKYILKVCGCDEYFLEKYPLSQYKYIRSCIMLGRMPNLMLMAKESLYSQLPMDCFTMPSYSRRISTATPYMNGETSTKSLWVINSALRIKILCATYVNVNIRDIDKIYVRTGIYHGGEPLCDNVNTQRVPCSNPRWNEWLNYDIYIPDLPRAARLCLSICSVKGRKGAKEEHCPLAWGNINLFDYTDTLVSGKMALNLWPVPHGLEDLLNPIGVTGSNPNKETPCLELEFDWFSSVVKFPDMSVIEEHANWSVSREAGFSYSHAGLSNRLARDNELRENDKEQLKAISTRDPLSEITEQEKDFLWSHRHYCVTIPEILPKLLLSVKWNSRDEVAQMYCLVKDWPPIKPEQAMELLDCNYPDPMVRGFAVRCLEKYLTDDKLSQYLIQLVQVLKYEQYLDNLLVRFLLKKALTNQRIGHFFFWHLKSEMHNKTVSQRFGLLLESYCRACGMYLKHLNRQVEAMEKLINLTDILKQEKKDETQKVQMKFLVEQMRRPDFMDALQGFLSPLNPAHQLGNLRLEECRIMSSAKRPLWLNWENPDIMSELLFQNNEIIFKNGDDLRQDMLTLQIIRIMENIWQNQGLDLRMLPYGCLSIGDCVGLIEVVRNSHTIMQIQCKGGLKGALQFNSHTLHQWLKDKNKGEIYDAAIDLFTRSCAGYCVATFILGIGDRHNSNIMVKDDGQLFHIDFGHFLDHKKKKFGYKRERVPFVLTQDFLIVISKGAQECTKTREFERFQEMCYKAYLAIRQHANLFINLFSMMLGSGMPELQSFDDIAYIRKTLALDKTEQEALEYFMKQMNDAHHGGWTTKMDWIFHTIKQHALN

IC50 [1] [nM]	IC50 [2] [nM]	IC50 [3] [nM]	IC50 [4] [nM]	IC50 [5] [nM]	IC50 [6] [nM]	SMILES
3600	< 3	68	5230	33	88	O=c1c2c(C(F)(F)F)cccc2nc([C@@H]2C[C@H](F)CN2c2ncnc3[nH]cnc23)n1-c1ccccc1
3000	19	650	> 10000	< 3	148	N#Cc1c(N)ncnc1N1CCC[C@H]1c1nc2cccc(F)c2c(=O)n1-c1ccccc1
3600	85	110	8120	349	886	Nc1nc(N2CCC[C@H]2c2nc3cccc(Cl)c3c(=O)n2C2CC2)c2nc[nH]c2n1
540	24	180	3840	27	82	Cc1nc(N)nc(N2CCC[C@H]2c2nc3cccc(C(F)(F)F)c3c(=O)n2-c2cccnc2)c1C#N
3700	52	305	> 10000	110	216	Cn1cnc2c(N3CCC[C@H]3c3nc4cccc(Cl)c4c(=O)n3-c3ccccc3)nc(N)nc21
7200	140	78	> 10000	204	793	CO[C@H]1C[C@@H](c2nc3cccc(Cl)c3c(=O)n2-c2ccccc2)N(c2nc(N)nn3ccnc23)C1
290	46	52	2370	6	35	N#Cc1c(N)nc(N)nc1N1CCC[C@H]1c1nc2cccc(C(F)(F)F)c2c(=O)n1-c1ccccc1
6600	390	320	> 10000	141	113	N#Cc1cnc(N)nc1N1C[C@@H](O)C[C@H]1c1nc2cccc(C(F)(F)F)c2c(=O)n1-c1ccccc1
2800	12	140	> 10000	62	261	N#Cc1c(N)ncnc1N1CCC[C@H]1c1nc2cccc(C(F)(F)F)c2c(=O)n1-c1ccccc1
2300	11	23	6630	46	119	Nc1nc(N2CSC[C@H]2c2nc3cccc(Cl)c3c(=O)n2-c2ccccc2)c2nc[nH]c2n1
5100	7	1200	4600	38	821	CS(=O)(=O)c1cccc2nc([C@@H]3CCCN3c3ncnc(N)c3C#N)n(-c3ccccc3)c(=O)c12
560	7	25	4020	43	74	N#Cc1c(N)ncnc1N1CCC[C@H]1c1nc2cccc(Cl)c2c(=O)n1C1CC1
> 10000	82	2100	> 10000	23	709	N#Cc1c(N)ncnc1N1C[C@@H](O)C[C@H]1c1nc2cccc(F)c2c(=O)n1-c1ccccc1
360	12	18	1040	4	5	Cc1nc(N)nc(N2C[C@@H](O)C[C@H]2c2nc3cccc(Cl)c3c(=O)n2-c2ccccc2)c1C#N
1700	48	87	> 10000	110	40	Nc1nc(N2CCC[C@H]2c2nc3cccc(C(F)(F)F)c3c(=O)n2-c2ccccc2)c2ncsc2n1
4500	50	240	8740	56	92	Cc1nc(N)nc(N2CCC[C@H]2c2nc3cccc(C(F)(F)F)c3c(=O)n2-c2cncc(F)c2)c1C#N
700	43	97	7130	30	33	Cc1nc(N)nc(N2C[C@@H](O)C[C@H]2c2nc3ccc(F)c(F)c3c(=O)n2-c2ccccc2)c1C#N
330	21	64	2870	9	115	Cc1nc(N)nc(N2CCC[C@H]2c2nc3cccc(F)c3c(=O)n2-c2ccccc2)c1C#N
5600	19	660	9950	38	718	N#Cc1c(N)ncnc1N1CCC[C@H]1c1nc2cccc(C(F)(F)F)c2c(=O)n1-c1cccc(F)c1
565	53	30	1320	6	38	CO[C@H]1C[C@@H](c2nc3cccc(Cl)c3c(=O)n2-c2ccccc2)N(c2nc(N)nc(C)c2C#N)C1
2500	26	38	8250	50	71	Nc1nc(N2C[C@@H](F)C[C@H]2c2nc3cccc(C(F)(F)F)c3c(=O)n2-c2cccc(F)c2)c2nc[nH]c2n1
5210	< 3	70	2200	13	27	Cc1ccccc1-n1c([C@@H]2CCCN2c2ncnc(N)c2C#N)nc2cccc(Cl)c2c1=O
3800	84	1300	3860	86	163	N#Cc1c(N)ncnc1N1C[C@@H](O)C[C@H]1c1nc2cccc(C(F)(F)F)c2c(=O)n1-c1cccnc1
280	13	14	1950	10	7	Cc1nc(N)nc(N2C[C@@H](O)C[C@H]2c2nc3ccc(F)c(Cl)c3c(=O)n2-c2ccccc2)c1C#N
